Measured values: ChEMBL document CHEMBL1146970, “Potent blockers of the monocarboxylate transporter MCT1: novel immunomodulatory compounds” (Bioorg Med Chem Lett, 2006)
Values after ≈ are worked out from the molar mass of the structure shown.

assay: not given; details: buffer

Row | solubility | SMILES
1 | 80 µg/mL (≈ 177 µM) | CC(C)Cn1c(=O)n(C)c(=O)c2c(SCCCO)n(Cc3cccc4ccccc34)cc21

assay: physchem; details: aqueous

Row | solubility | SMILES
2 | 520 µg/mL (≈ 1060 µM) | CC(C)Cn1c(=O)n(C)c(=O)c2c(C(=O)N3CC[C@@H](O)C3)c(Cc3ccnc4ccccc34)sc21
3 | < 1 µg/mL | CC(C)Cc1nn(C)c(=O)c2c(SCCCO)n(Cc3cccc4ccccc34)cc12

assay: physchem; details: octanol/water

Row | logD | SMILES
4 | 2.7 | CC(C)Cn1c(=O)n(C)c(=O)c2c(C(=O)N3CC[C@@H](O)C3)c(Cc3ccccc3C(F)(F)F)sc21
5 | 3.3 | CC(C)Cn1c(=O)n(C)c(=O)c2c(S(=O)(=O)N3CC[C@@H](O)C3)c(Cc3ccccc3C(F)(F)F)sc21 (racemic)
6 | > 4.5 | CC(C)Cn1c(=O)n(C)c(=O)c2c(SCC(O)CO)c(Cc3ccccc3C(F)(F)F)sc21 (racemic)
7 | 4.4 | CC(C)Cn1c(=O)n(C)c(=O)c2c(SCCCO)n(Cc3cccc4ccccc34)cc21
8 | 4.1 | CC(C)Cn1c(=O)n(C)c(=O)c2c(SCCCO)c(Cc3ccccc3C(F)(F)F)sc21

The remaining lines, values behind:

Row | SMILES | logD
9 | CNc1nc2ccccc2n1Cc1sc2c(c1C(=O)N1CC[C@@H](O)C1)c(=O)n(C)c(=O)n2CC(C)C | 1.6
10 | CC(C)Cn1c(=O)n(C)c(=O)c2c(S[C@@H]3CC[C@H](O)C3)c(Cc3ccccc3C(F)(F)F)sc21 (racemic) | 4.4
11 | CC(C)Cn1c(=O)n(C)c(=O)c2c(C(=O)N3CC[C@@H](O)C3)c(Cc3cccc4ncccc34)sc21 | 2
12 | CC(C)Cn1c(=O)n(C)c(=O)c2c(S[C@@H]3CCC[C@H]3O)c(Cc3ccccc3C(F)(F)F)sc21 (racemic) | 4.2
13 | CC(C)Cn1c(=O)n(C)c(=O)c2c(C(=O)N3CCCC3)c(Cc3ccccc3C(F)(F)F)sc21 | 3.8
14 | CC(C)Cn1c(=O)n(C)c(=O)c2c(SC3CCC3)c(Cc3ccccc3C(F)(F)F)sc21 | > 3.5
15 | CC(C)Cn1c(=O)n(C)c(=O)c2c(C(=O)N3CC[C@@H](O)C3)c(Cc3c[nH]c4ccccc34)sc21 | 2.4
16 | CC(C)Cn1c(=O)n(C)c(=O)c2c(C(=O)N3CC[C@@H](O)C3)c(Cc3ccnc4ccccc34)sc21 | 1.7
17 | CC(C)Cn1c(=O)n(C)c(=O)c2c(C(=O)N3CC[C@@H](O)C3)c(Cc3cncc4ccccc34)sc21 | 1.7
18 | CC(C)Cn1c(=O)n(C)c(=O)c2c(C(=O)N3CC(C)(O)C3)c(Cc3ccccc3C(F)(F)F)sc21 | 3.2
19 | CC(C)Cc1nn(C)c(=O)c2c(SCCCO)n(Cc3cccc4ccccc34)cc12 | 4.8
20 | CC(C)Cn1c(=O)n(C)c(=O)c2c(C(=O)N3CC[C@@H](O)C3)c(Cc3c[nH]c4ncccc34)sc21 | 1.7
21 | Cc1nc(Cl)c(Cl)n1Cc1sc2c(c1C(=O)N1CC[C@@H](O)C1)c(=O)n(C)c(=O)n2CC(C)C | 1.6
